In patent US11542274B1, “Therapeutic compounds and methods of use thereof” (AGENCY FOR SCIENCE, TECHNOLOGY AND RESEARCH (A*STAR), priority 2019, dated 2023) one finds IC50 and GI50 data, which are given here for 37 molecules.

Where only a bound is given, the exact number is not on record here.

Sequence of truncated CRBN (319-427) (Q96SW2 319-427): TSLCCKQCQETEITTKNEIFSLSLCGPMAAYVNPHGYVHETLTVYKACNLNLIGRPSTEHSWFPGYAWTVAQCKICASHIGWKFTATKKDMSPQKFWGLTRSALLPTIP

One assay has as its target truncated CRBN (319-427) (Homo sapiens (Human), UniProt Q96SW2). The assay is described as follows: Fluorescence binding assay (fluorescence quenching), affinity to E3-CEREBLON (CRBN)-ubiquitin ligase. To be noted: ubiquitination moiety and linker, pH 6.5. The protocol: Fluorescence quenching end point measurements were performed in black polystyrene 384-plates on Tecan Safire monochromator reader with the following settings: excitation 280 nm; excitation bandwidth 10.0 nm; emission collection 340 nm; emission bandwidth 20.0 nm; high sensitivity flash mode; integration time 40 μS; delay 0 μm. All measurements were done in duplicates; GraphPad Prism 5.03 was used for data evaluation, curve fitting, plotting and determination of IC50 values.
Serial dilutions of each tested ligands were mixed with truncated CRBN (319-427) to a final volume of 25 μL in the assay buffer (20 mM sodium phosphate buffer, pH 6.5, with 150 mM sodium chloride). The final concentration of CRBN in all assay will be 5-10 μM with DMSO level at 4%. A control lanes were prepared with only tested ligands without the addition of CRBN, top up with assay buffer to 25 μL. Plates were incubated for 5 minutes and analyzed using the monochromator plate reader.
IC50 is the compound concentration that causes 50% quenching of the desired activity.
`[N-]=[N+]=NCCOCCOCCOCCNC(=O)c1cc(-c2ccc3c(c2)NC(=O)C3)ccn1` [Compound 084, N-(2-(2-(2-(2-azidoethoxy)ethoxy)ethoxy)ethyl)-4-(2-oxoindolin-6-yl)picolinamide] showed a half-inhibitory concentration (IC50) of 1 to 100 µM.

In turn, `[N-]=[N+]=NCCOCCOCCOCCNc1cc(-c2ccc3c(c2)NC(=O)C3)ccn1` [Compound 085, 6-(2-((2-(2-(2-(2-azidoethoxy)ethoxy)ethoxy)ethyl)amino)pyridin-4-yl)indolin-2-one] came in with an IC50 of 100 to 300 µM.

`[N-]=[N+]=NCCOCCOCCOCCNc1ccc(C(=O)Nc2ccc3c(c2)CC(=O)N3)cn1` [Compound 086, 6-((2-(2-(2-(2-azidoethoxy)ethoxy)ethoxy)ethyl)amino)-N-(2-oxoindolin-5-yl)nicotinamide] gave an IC50 of 1 to 100 µM.

In turn, `NCCCCCNc1cc(-c2ccc3c(c2)NC(=O)C3)ccn1` [Compound 087, 6-(2-((5-aminopentyl)amino)pyridin-4-yl)indolin-2-one] returned an IC50 greater than 300 µM.

`[N-]=[N+]=NCCOCCOCCOCCNc1cc(-c2ccc3c(c2)CC(=O)N3)ccn1` [Compound 088, 5-(2-((2-(2-(2-(2-azidoethoxy)ethoxy)ethoxy)ethyl)amino)pyridin-4-yl)indolin-2-one] showed an IC50 of 100 to 300 µM.

`[N-]=[N+]=NCCOCCOCCOCCNc1ccc(-c2ccc3c(c2)NC(=O)C3)cn1` [Compound 089, 6-(6-((2-(2-(2-(2-azidoethoxy)ethoxy)ethoxy)ethyl)amino)pyridin-3-yl)indolin-2-one]: the half-inhibitory concentration (IC50) was in the range of 100 to 300 µM.

Turning to `Nc1ccc(OCCOCCOCCOCCNC(=O)c2cccc(-c3ccc4c(c3)NC(=O)C4)c2)cc1` [Compound 090, N-(2-(2-(2-(2-(4-aminophenoxy)ethoxy)ethoxy)ethoxy)ethyl)-3-(2-oxoindolin-6-yl)benzamide], the IC50 fell in the range of 100 to 300 µM.

`Nc1ccc(OCCOCCOCCOCCNC(=O)c2cccc(-c3ccc4c(c3)CC(=O)N4)c2)cc1` [Compound 091, N-(2-(2-(2-(2-(4-aminophenoxy)ethoxy)ethoxy)ethoxy)ethyl)-3-(2-oxoindolin-5-yl)benzamide] showed an IC50 of 1 to 100 µM.

In the case of `[N-]=[N+]=NCCOCCOCCOCCNc1ccc(-c2ccc3c(c2)CC(=O)N3)cn1` [Compound 092, 5-(6-((2-(2-(2-(2-azidoethoxy)ethoxy)ethoxy)ethyl)amino)pyridin-3-yl)indolin-2-one], the IC50 lay within 1 to 100 µM.

With `Nc1ccc(OCCOCCOCCOCCNc2ccc(-c3ccc4c(c3)CC(=O)N4)cn2)cc1` [Compound 093, 5-(6-((2-(2-(2-(2-(4-aminophenoxy)ethoxy)ethoxy)ethoxy)ethyl)amino)-pyridin-3-yl)indolin-2-one], the half-inhibitory concentration (IC50) fell in the range of 1 to 100 µM.

Molecule `[N-]=[N+]=NCCOCCOCCOCCNc1ncccc1-c1ccc2c(c1)CC(=O)N2` [Compound 094, 5-(2-((2-(2-(2-(2-azidoethoxy)ethoxy)ethoxy)ethyl)amino)pyridin-3-yl)indolin-2-one] gave an IC50 of 100 to 300 µM.

Molecule `[N-]=[N+]=NCCOCCOCCOCCNc1ncccc1-c1ccc2c(c1)NC(=O)C2` [Compound 095, 6-(2-((2-(2-(2-(2-azidoethoxy)ethoxy)ethoxy)ethyl)amino)pyridin-3-yl)indolin-2-one] yielded an IC50 greater than 300 µM.

The assay is the same for the next values; noted with them: ubiquitination moiety, pH 6.5.
Take `O=C1Cc2ccc(C3=CCN(C(=O)OCc4ccccc4)CC3)cc2N1` [Compound 063, benzyl 4-(2-oxoindolin-6-yl)-3,6-dihydropyridine-1(2H)-carboxylate]: the concentration for half-maximal inhibition (IC50) is greater than 300 µM.

As to `O=C1Cc2ccc(-c3ccc(N4CCCCC4)nc3)cc2N1` [Compound 064, 6-(6-(piperidin-1-yl)pyridin-3-yl)indolin-2-one], the IC50 was greater than 300 µM.

On to `O=C1Cc2ccc(-c3ccc(N4CCNCC4)nc3)cc2N1` [Compound 065, 6-(6-(piperazin-1-yl)pyridin-3-yl)indolin-2-one], for which the IC50 is greater than 300 µM.

In turn, `CCOC(=O)c1cc(-c2ccc3c(c2)NC(=O)C3)ccn1` [Compound 066, ethyl 4-(2-oxoindolin-6-yl)picolinate] yielded an IC50 greater than 300 µM.

For `CN1CCN(C(=O)c2ccc3c(c2)CC(=O)N3)CC1` [Compound 067, 5-(4-methylpiperazine-1-carbonyl)indolin-2-one], the IC50 was greater than 300 µM.

`O=C1Cc2cc(C(=O)N3CCC(c4ccccc4)CC3)ccc2N1` [Compound 068, 5-(4-phenylpiperidine-1-carbonyl)indolin-2-one] returned an IC50 of 100 to 300 µM.

As to `O=C1Cc2cc(C(=O)N3CCC(Cc4ccccc4)CC3)ccc2N1` [Compound 069, 5-(4-benzylpiperidine-1-carbonyl)indolin-2-one], the IC50 is greater than 300 µM.

With `O=C1Cc2ccc(-c3ccc(F)nc3)cc2N1` [Compound 070, 6-(6-fluoropyridin-3-yl)indolin-2-one], the IC50 is greater than 300 µM.

`O=C1Cc2ccc(NC(=O)c3cccnc3)cc2N1` [Compound 071, N-(2-oxoindolin-6-yl)nicotinamide] registered an IC50 of 100 to 300 µM.

`O=C1Cc2cc(NC(=O)c3cccnc3)ccc2N1` [Compound 072, N-(2-oxoindolin-5-yl)nicotinamide] displayed an IC50 of 100 to 300 µM.

`O=C1Cc2cc(-c3ccncc3)ncc2N1` [Compound 073, 5-(pyridin-4-yl)-1,3-dihydro-2H-pyrrolo[2,3-c]pyridin-2-one] had an IC50 greater than 300 µM.

`O=C1Cc2cnc(-c3ccncc3)cc2N1` [Compound 074, 6-(pyridin-4-yl)-1,3-dihydro-2H-pyrrolo[3,2-c]pyridin-2-one] showed an IC50 of 100 to 300 µM.

In turn, `O=C1Cc2ncc(-c3ccncc3)cc2N1` [Compound 075, 6-(pyridin-4-yl)-1,3-dihydro-2H-pyrrolo[3,2-b]pyridin-2-one] showed an IC50 greater than 300 µM.

For `O=C1Cc2cc(NC(=O)c3ccnc(F)c3)ccc2N1` [Compound 076, 2-fluoro-N-(2-oxoindolin-5-yl)isonicotinamide], the IC50 lay in the range of 100 to 300 µM.

Molecule `NC1CCN(C(=O)c2ccc3c(c2)NC(=O)C3)CC1` [Compound 077, 6-(4-aminopiperidine-1-carbonyl)indolin-2-one] registered an IC50 greater than 300 µM.

`NC1CCN(C(=O)c2ccc3c(c2)CC(=O)N3)CC1` [Compound 078, 5-(4-aminopiperidine-1-carbonyl)indolin-2-one]: the IC50 was greater than 300 µM.

As for `COC(=O)c1ccccc1-c1ccc2c(c1)NC(=O)C2` [Compound 079, methyl 2-(2-oxoindolin-6-yl)benzoate], the IC50 is greater than 300 µM.

`NC1CCCN(C(=O)c2ccc3c(c2)NC(=O)C3)C1` (stereo not shown) [Compound 080, 6-(3-aminopiperidine-1-carbonyl)indolin-2-one] registered an IC50 greater than 300 µM.

Take `NC1CCCN(C(=O)c2ccc3c(c2)CC(=O)N3)C1` (stereo not shown) [Compound 081, 5-(3-aminopiperidine-1-carbonyl)indolin-2-one]: the 50% inhibitory concentration (IC50) was greater than 300 µM.

`CC(C)C1C(=O)Nc2ccc(-c3ccncc3)cc21` (stereo not shown) [Compound 082, 3-isopropyl-5-(pyridin-4-yl)indolin-2-one] displayed a 50% inhibitory concentration (IC50) greater than 300 µM.

Molecule `CN1C(=O)Cc2cc(C(=O)N3CCCCC3)ccc21` [Compound 083, 1-methyl-5-(piperidine-1-carbonyl)indolin-2-one] yielded an IC50 greater than 300 µM.

For the molecule “N-(1-acetylpiperidin-4-yl)-2-oxoindoline-6-carboxamide [Compound 026]”, the half-inhibitory concentration (IC50) was greater than 300 µM.

Another assay has as its system RAMOS cells (Burkitt's lymphoma cell line). Briefly: Anti-proliferation assay (CellTiter-Glo). The note with it: Homo sapiens, 72 h, 3 days. It is filed as cell-based. The protocol:
In cell growth experiments, cells were seeded in 96-well cell culture plates at a density of 3000 of RAMOS cells/well in 100 μL of culture medium. 100 μL of the diluted solution containing the tested compound was added to the appropriate wells of the cell plate. After addition of the tested compound, the cells were incubated at 37° C. in an atmosphere of 5% CO2 for 3 days. CellTiter-Glo (CTG) reagent from the Promega CellTiter-Glo Luminescent Cell Viability Assay kit (#G7572) was added into an OptiPlate 96 (Perkin Elmer, White, Opaque, #6005299) in the dark, incubated for at least 2 hrs, and luminescence signal was read using Tecan Safire II Multi-Mode Plate Reader. The GI50 was calculated by nonlinear regression analysis using GraphPad Prism5 software.
GI50 is the concentration for 50% of maximal inhibition of cell proliferation.
Consider `Cc1sc2c(c1C)C(c1ccc(Cl)cc1)=N[C@@H](CC(=O)NCCCCCNc1cc(-c3ccc4c(c3)NC(=O)C4)ccn1)c1nnc(C)n1-2` [Compound 096, (S)-2-(4-(4-chlorophenyl)-2,3,9-trimethyl-6H-thieno[3,2-f][1,2,4]triazolo[4,3-a][1,4]diazepin-6-yl)-N-(5-((4-(2-oxoindolin-6-yl)pyridin-2-yl)amino)pentyl)acetamide], for which the GI50 was 0.1 to 1 µM.

In turn, `Cc1sc2c(c1C)C(c1ccc(Cl)cc1)=N[C@@H](CC(=O)NCCOCCOCCOCCNc1cc(-c3ccc4c(c3)CC(=O)N4)ccn1)c1nnc(C)n1-2` [Compound 097, (S)-2-(4-(4-chlorophenyl)-2,3,9-trimethyl-6H-thieno[3,2-f][1,2,4]triazolo[4,3-a][1,4]diazepin-6-yl)-N-(2-(2-(2-(2-((4-(2-oxoindolin-5-yl)pyridin-2-yl)amino)ethoxy)ethoxy)ethoxy)ethyl)acetamide] had a GI50 greater than 1 µM.

As for `Cc1sc2c(c1C)C(c1ccc(Cl)cc1)=N[C@@H](CC(=O)Nc1ccc(OCCOCCOCCOCCNc3ccc(-c4ccc5c(c4)CC(=O)N5)cn3)cc1)c1nnc(C)n1-2` [Compound 098, (S)-2-(4-(4-chlorophenyl)-2,3,9-trimethyl-6H-thieno[3,2-f][1,2,4]triazolo[4,3-a][1,4]diazepin-6-yl)-N-(4-(2-(2-(2-(2-((5-(2-oxoindolin-5-yl)pyridin-2-yl)amino)ethoxy)ethoxy)ethoxy)ethoxy)phenyl)acetamide], the GI50 lay within 0.001 to 0.1 µM.
